# Source: ChEMBL document CHEMBL6109055, “Naphtho[1,2-b][1,4]diazepinedione-Based P2X4 Receptor Antagonists from Structure-Activity Relationship Studies toward PET Tracer Development” (J Med Chem, 2025)
# Key:
# P2X purinoceptor 4 = P2X purinoceptor 4 (Homo sapiens, UniProt Q99571); experiment: Antagonist activity at human P2X4 receptor overexpressed in human 1321N1 cells assessed as inhibition of ATP-induced calcium responses by Fluo-4 AM/Ca2+ Flux assay; format: cell-based
# [1] = Metabolic stability in C57BL/6 mouse liver microsomes assessed as remaining parent compound by UPLC-UV/MS analysis; format: ADME, Microsome
# [2] = Lipophilicity, logD of compound in n-octanol and buffer at pH 7.4 by LC-MS analysis; format: physicochemical
# [3] = Plasma protein binding in unknown origin; format: ADME, cell-free; conditions: read-out: PPB (converted)
# THP-1 = experiment: Inhibition of NLRP3 inflammasome activation in LPS-activated human THP-1 cells assessed as inhibition of LPS/ATP induced IL-1beta secretion at 100 nM preincubated with PMA for 24 hrs followed further stimulated with LPS for 3 hrs and further incubated with compound and ATP for 30 mins by ELISA method; format: cell-based
# P2X purinoceptor 4, sequence (Q99571 whole entry): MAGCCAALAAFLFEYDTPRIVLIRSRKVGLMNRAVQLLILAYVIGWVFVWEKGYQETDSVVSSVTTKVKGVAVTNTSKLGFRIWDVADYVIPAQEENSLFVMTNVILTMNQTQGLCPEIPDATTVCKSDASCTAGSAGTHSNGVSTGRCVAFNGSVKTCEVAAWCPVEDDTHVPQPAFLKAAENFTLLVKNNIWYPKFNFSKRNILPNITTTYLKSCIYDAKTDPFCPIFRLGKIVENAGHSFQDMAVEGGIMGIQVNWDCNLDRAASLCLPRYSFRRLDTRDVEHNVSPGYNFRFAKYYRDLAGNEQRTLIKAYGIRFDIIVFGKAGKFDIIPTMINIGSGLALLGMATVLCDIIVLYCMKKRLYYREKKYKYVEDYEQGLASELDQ
Compound,IC50 (P2X purinoceptor 4; read-out: IC50) [nM],also measured
CN1C(=O)CC(=O)N(c2ccc(N(C)S(=O)(=O)c3ccccc3)cc2)c2ccc3ccccc3c21,> 10000,–
COc1ccc(F)cc1S(=O)(=O)Nc1ccc(N2C(=O)CC(=O)Nc3c2ccc2ccccc32)cc1,473,–
COc1cc(Br)ccc1S(=O)(=O)Nc1ccc(N2C(=O)CC(=O)Nc3c2ccc2ccccc32)cc1,344,–
O=C1CC(=O)N(c2ccccc2)c2ccc3ccccc3c2N1,9280,–
COc1cc(F)ccc1S(=O)(=O)Nc1ccc(N2C(=O)CC(=O)Nc3c2ccc2ccccc32)cc1,59,–
O=C1CC(=O)N(c2ccc(NS(=O)(=O)c3ccccc3Br)cc2)c2ccc3ccccc3c2N1,240,–
COc1ccc(S(=O)(=O)Nc2ccc(N3C(=O)CC(=O)Nc4c3ccc3ccccc43)cc2)c(Cl)c1,5970,–
O=C1CC(=O)N(c2ccc(NS(=O)(=O)c3ccccc3I)cc2)c2ccc3ccccc3c2N1,264,–
O=C1CC(=O)N(c2ccc(NC(=O)c3cccnc3Cl)cc2)c2ccc3ccccc3c2N1,780,–
O=C1CC(=O)N(c2ccc(NS(=O)(=O)c3ccc(B(O)O)cc3Cl)cc2)c2ccc3ccccc3c2N1,891,–
Nc1ccc(N2C(=O)CC(=O)Nc3c2ccc2ccccc32)nc1,6460,–
Cc1cc(F)ccc1CS(=O)(=O)Nc1ccc(N2C(=O)CC(=O)Nc3c2ccc2ccccc32)nc1,25,Stability [1]: 57%; logD [2]: 2.36; fraction unbound [3]: 0.05
O=C1CC(=O)N(c2ccc(NC(=O)c3cccnc3[N+](=O)[O-])cc2)c2ccc3ccccc3c2N1,2280,–
O=C(Cc1cc(Br)ccc1Cl)Nc1ccc(N2C(=O)CC(=O)Nc3c2ccc2ccccc32)cc1,1000,–
Cc1ccccc1S(=O)(=O)Nc1ccc(N2C(=O)CC(=O)Nc3c2ccc2ccccc32)cc1,115,–
Cc1ccc(Cl)c(S(=O)(=O)Nc2ccc(N3C(=O)CC(=O)Nc4c3ccc3ccccc43)cc2)c1,373,–
O=C1CC(=O)N(c2ccc(NS(=O)(=O)c3cc(Br)ccc3Cl)cc2)c2ccc3ccccc3c2N1,175,–

Compound,IC50 (P2X purinoceptor 4; read-out: IC50) [nM],also measured
O=C1CC(=O)N(c2ccc(NS(=O)(=O)Cc3ccccc3)cc2)c2ccc3ccccc3c2N1,191,–
O=C1CC(=O)N(c2ccc(NS(=O)(=O)Cc3ccc(F)cc3Cl)cc2)c2ccc3ccccc3c2N1,23,Stability [1]: 58%; logD [2]: 3.71; fraction unbound [3]: < 0.02
O=C1CC(=O)N(c2ccc(NC(=O)c3ccccc3Cl)cc2)c2ccc3ccccc3c2N1,481,–
O=C1CC(=O)N(c2ccc(NS(=O)(=O)Cc3ccccc3Cl)nc2)c2ccc3ccccc3c2N1,76,–
O=C1CC(=O)N(c2ccc(NS(=O)(=O)Cc3ccc(F)cc3Br)cc2)c2ccc3ccccc3c2N1,76,–
O=C1CC(=O)N(c2ccc(NS(=O)(=O)Cc3ccccc3Cl)cc2)c2ccc3ccccc3c2N1,–,Stability [1]: 71%; logD [2]: 3.39; fraction unbound [3]: < 0.02
Cc1cc(F)ccc1CS(=O)(=O)Nc1ccc(N2C(=O)CC(=O)Nc3c2ccc2ccccc32)cc1,–,Stability [1]: 64%; inhibition (THP-1): Active; Compund More Potent Than Bay1797; IC50 (P2X purinoceptor 4; read-out: pIC50 (converted)): 7.59 nM; fraction unbound [3]: < 0.02
Nc1ccc(N2C(=O)CC(=O)Nc3c2ccc2ccccc32)cn1,9920,–
O=C1CC(=O)N(c2ccc(NS(=O)(=O)c3cccnc3Cl)cc2)c2ccc3ccccc3c2N1,318,–
O=C1CC(=O)N(c2ccc(NS(=O)(=O)c3ccccc3F)cc2)c2ccc3ccccc3c2N1,1170,–
Cc1cc(Br)ccc1CS(=O)(=O)Nc1ccc(N2C(=O)CC(=O)Nc3c2ccc2ccccc32)cc1,97,–
O=C1CC(=O)N(c2ccc(NS(=O)(=O)c3cc(F)ccc3Cl)cc2)c2ccc3ccccc3c2N1,135,Stability [1]: 98%; logD [2]: 3.25; fraction unbound [3]: < 0.02
Cc1cc(F)ccc1S(=O)(=O)Nc1ccc(N2C(=O)CC(=O)Nc3c2ccc2ccccc32)cc1,–,Stability [1]: 93%; inhibition (THP-1): Active; Compund More Potent Than Bay1797; fraction unbound [3]: < 0.02
O=C1CC(=O)N(c2ccc(NC(=O)c3cccnc3F)cc2)c2ccc3ccccc3c2N1,2410,–
O=C1CC(=O)N(c2ccc(NS(=O)(=O)Cc3cc(F)ccc3Cl)cc2)c2ccc3ccccc3c2N1,81,–
O=C(Cc1cc(F)ccc1Cl)Nc1ccc(N2C(=O)CC(=O)Nc3c2ccc2ccccc32)cc1,442,–
O=C1CC(=O)N(c2ccc(NS(=O)(=O)c3ccc(F)cc3)cc2)c2ccc3ccccc3c2N1,24800,–
